Results taken from a melting point compilation (Tetko et al.).

melting point [°C] | Compound
116 to 118 | O=C(c1cc(Cl)c[nH]1)N1CCCNCC1
159 to 161 | Nc1ccc2oc(=O)ccc2c1
264 to 266 | O=C1Nc2cc(I)ccc2C1=O
153 to 155 | CC(C)(C)OC(=O)Nc1ccc(CC(=O)O)cc1
68 to 70 | CC(C)(C(=O)O)c1cccc(Br)c1
153 to 155 | CC(C)c1oc(-c2ccccc2)nc1C(=O)O
169 to 171 | Cc1cc(NS(=O)(=O)C(F)(F)F)ccc1C(=O)O
169 to 171 | O=C1CCCc2c(Br)cccc2N1
152 to 154 | O=C(O)c1ccc(C(F)(F)C(F)(F)F)cc1
122 to 124 | O=C(O)CNC(=O)CC(F)(F)F
69 to 71 | CC(C)(C)OC(=O)N1CC(O)(c2ccc(F)c(F)c2)C1
52 to 53 | C=CCOc1c(Br)cc(C=O)cc1OC
112 to 114 | Cc1ccccc1NC(=O)C(C)Cl (configuration not stated)
170 to 172 | Cc1ccc2c(CCl)cc(=O)oc2c1
110 to 112 | Nc1ccccc1C(=O)NCCc1ccccc1
204 to 206 | Nc1ccc(N2C(=O)c3ccccc3C2=O)c(Cl)c1
67 to 69 | O=C(CCN1CCOCC1)c1ccc2ccccc2c1
206 to 208 | Cn1c(CC(=O)NN)nc2ccccc21
62 to 64 | CS(=O)(=O)c1ccccc1N
218 to 220 | Nc1ccc(-n2cc(S(N)(=O)=O)cn2)nc1
164 to 166 | CC(C)(C)c1nc(C#N)c(NN)o1
59 to 61 | COC(=O)CCNc1ccc(C)cc1
217 to 219 | O=C1CN(S(=O)(=O)c2cccc([N+](=O)[O-])c2)CCN1
211 to 213 | COc1ccc(-c2noc(=O)[nH]2)cc1OC

melting point [°C] | Compound
183 to 185 | CCOc1cc(C(=O)N2CCCC(C(=O)O)C2)cc(OCC)c1OCC (configuration not stated)
125 to 127 | CC(CS(C)(=O)=O)C(=O)O (configuration not stated)
124 to 126 | O=C(NO)c1cccs1
174 to 176 | Nc1ncn(-c2ccccn2)n1
145 to 147 | NS(=O)(=O)c1ccc2c(c1)CCCO2
173 to 175 | O=[N+]([O-])c1ccc2c(S(=O)(=O)Cl)c[nH]c2c1
205 to 207 | NC(CC(=O)O)c1cc(Cl)cc(Cl)c1 (configuration not stated)
< 17 | CC(C)(C)c1ccc(OCC(=O)O)c(C(C)(C)C)c1
78 to 80 | CCOC(=O)c1ncoc1-c1scnc1C
65 to 67 | O=C(Cc1ccc(F)cc1)N1CCNCC1
231 to 233 | NS(=O)(=O)c1ccc(C(=O)O)cc1Cl
103 to 105 | OCc1noc(-c2cccc(Cl)c2)n1
219 to 221 | COc1ccc2nc(Sc3ncccc3C(=O)O)[nH]c2c1
64 to 66 | O=C(O)CC=Cc1cccc(F)c1
146 to 148 | Nc1cc(-c2cccc(Cl)c2)nn1CCO
173 to 175 | O=C(O)Cc1ccc(NC(=O)C2CCCC2)cc1
145 to 147 | O=C(O)C1CCCN1C(=O)c1cccs1 (configuration not stated)
97 to 99 | Cc1ccc(OCCCC(=O)Nc2ccc(CN)cc2)cc1
243 to 245 | Nc1nnc(-c2ccccc2)o1
81 to 83 | COC(=O)c1ncccc1F
164 to 166 | COc1ccc(S(=O)(=O)NC2CCOCC2)cc1N
162 to 164 | CC(C)(C)OC(=O)NC1(C(=O)O)Cc2ccccc2C1
272 to 274 | COc1ccc(OC)c2c(O)c(C(=O)O)cnc12
135 to 137 | NS(=O)(=O)c1ccccc1O

melting point [°C] | Compound
209 to 211 | CC1(C)Cc2cc(C(=O)O)sc2-c2ccccc21
167 to 169 | Cn1ccnc1-c1cc(N)[nH]n1
63 to 65 | Cc1ccc(Oc2cc(C#N)ccn2)cc1C
230 to 232 | Cc1ccc(C(=O)O)cc1NC(=O)c1ccco1
126 to 128 | Cc1nc(-c2cccc(O)c2)no1
106 to 108 | NC(=O)Cc1cccc(C(F)(F)F)c1
173 to 175 | NS(=O)(=O)c1cccc2c1OCCO2
66 to 68 | O=C(O)CCOc1ccc2ccccc2c1
47 to 49 | O=C(c1cccnc1)c1cccc(Cl)c1
160 to 162 | Cc1cc(C(=O)O)c(C)n1-c1cccc(Cl)c1
138 to 140 | O=C(O)CCCCCNC(=O)NC1CCCCC1
68 to 70 | CN(C)CC(O)Cn1cc(N)cn1 (configuration not stated)
198 to 200 | CC(C)CNCC(=O)O
104 to 106 | Nc1cc(-c2cc(F)cc(Br)c2)[nH]n1
164 to 166 | COc1ccc(C(=O)Nc2nc(C)cs2)cc1N
64 to 66 | Cn1cc(C=O)c(-c2cccs2)n1
76 to 78 | NNC(=S)NC1CCCC1
271 to 273 | O=C(O)c1n[nH]c2ccc(Cl)cc12
132 to 134 | CN1CCN(C(=O)C2CNc3ccccc3O2)CC1 (configuration not stated)
156 to 158 | O=c1cc(I)cnn1Cc1ccccc1
183 to 185 | O=Cc1cnc(-c2ccc(Cl)cc2)nc1
225 to 227 | CCOC(=O)c1c[nH]cc(C)c1=O
248 to 250 | N=C(NN)c1cc(Cl)ccn1
106 to 108 | NCc1ccc(NC(=O)C(F)(F)F)cc1

melting point [°C] | Compound
217 to 219 | Nc1ncc(Cc2cccc(C(=O)O)c2)s1
134 to 136 | Cc1ccc(-c2nn(-c3ccccc3)cc2CO)cc1C
140 to 142 | O=C(CCl)c1c(-c2ccccc2)[nH]c2ccccc12
167 to 170 | Cc1cc(C)c(C(N)=O)c(S)n1
168 to 170 | Nc1[nH]nc(CCC2CCCCC2)c1-c1ccc(Br)cc1
166 to 168 | O=C(O)c1csc(-c2ccoc2)n1
169 to 171 | Nc1ccccc1NS(=O)(=O)c1ccccc1
47 to 49 | CCCOc1ccc(Br)cc1C=O
190 to 192 | Cc1ccc(N)cc1NC(=O)c1ccccc1I
90 to 92 | COc1ccc(C(=O)c2ccc(F)cc2)cc1
86 to 88 | COc1ccccc1C=NO
153 to 155 | Cc1ccc(C(C)C)cc1OCC(=O)O
138 to 140 | O=C(O)c1cccc(Oc2ccc(Cl)c(Cl)c2)n1
239 to 241 | CNC(C(=O)O)c1cc(F)ccc1F (configuration not stated)
254 to 256 | COc1cc(C(=O)O)sc1S(N)(=O)=O
117 to 119 | Clc1nc(Cl)c2ccccc2n1
145 to 147 | COc1cc(C(=O)O)ccc1OCC(C)C
155 to 157 | Cc1ccccc1-c1noc(=O)[nH]1
230 to 232 | O=C(O)CNC(=O)c1ccncc1
228 to 230 | O=C(O)c1c[nH]c2cc(F)ccc12
146 to 148 | CCCS(=O)(=O)N1CCC(C(=O)O)CC1
94 to 96 | Nc1cccc(Br)c1CO
98 to 100 | COc1cc(C=O)ccc1OCC(=O)N1CCOCC1
151 to 153 | Fc1ccc(NC2CCN(c3ccncc3)CC2)cc1

Compound | melting point [°C]
CN1CCN(c2cccc(Cl)c2C=O)CC1 | 80 to 82
c1ccc(C2CNCCS2)cc1 (configuration not stated) | 60 to 62
CC(N)C(O)c1c(F)cccc1F (configuration not stated) | 119 to 121
[N-]=[N+]=Nc1ccc(Cl)cc1C(F)(F)F | 32 to 34
[N-]=[N+]=NC(C(N)=O)c1ccc(F)cc1 (configuration not stated) | 127 to 129
O=C1CC(c2cccc(F)c2)CN1 (configuration not stated) | 77 to 79
